Reference: US20250199004A1, “METHODS OF EVALUATING TREATMENT OUTCOME IN HIGH GRADE SEROUS OVARIAN CANCER” (THE REGENTS OF THE UNIVERSITY OF COLORADO, A BODY CORPORATE, priority 2018, published 2025)

How the values were obtained:
Type in all cases: cell-based, human
[1] = tested on: TMEFF1 expression in OVCAR4 cells; assay: TMEFF1 (CBX2 target gene) expression by qPCR; conditions: qPCR after treatment of OVCAR4 cells
Experimental: Ten candidate inhibitors were evaluated based on their ability to inhibit HGSOC cell viability. Dose response assays of all 10 inhibitors were conducted in OVCAR4, PEO1, and COV504 HGSOC cell lines to determine half inhibitory concentration (IC50) (FIG. 12 Panel A). We explored ability of these compounds to downregulate a CBX2 target gene, transmembrane protein with EGF-like and two follistatine-like domains 1 (TMEFF1) (FIG. 12 Panel B).
RNA was isolated using RNAeasy Plus Mini Kit (Qiagen, Hilden Germany) according to the manufacturer's protocol. NanoDrop spectrophotometry was used to measure concentration of extracted RNA. Luna Universal One-step RT qPCR kit (New England BioLabs, Ipswich, MA) was used on BioRad CFX96 (Bio-Rad, Hercules, CA). HPRT or GAPDH were used as internal control as stated in figure legend.

CBX2 = CBX2 knockdown confirmed via qPCR and immunoblots; conditions: shRNA transduced into OVCAR4, PEO1 and OVCAR8 cells; vs shControl
Description: To further elucidate the role of CBX2 in HGSOC, we evaluated the impact of CBX2 modulation in PEO1, OVCAR4, and OVCAR8 HGSOC cell lines. One of the two independent small hairpin RNAs (shRNA) specific for CBX2 or a control (shControl) were transduced into OVCAR4, PEO1, and OVCAR8 cells. CBX2 knockdown was confirmed via quantitative PCR (qPCR) and immunoblots, with approximately 60% knockdown in the presence of shCBX2 #1 and 30% knockdown in the presence of shCBX2 #2 (FIG. 2A Panels C, D; and FIG. 3A Panels B-D). […] OVCAR4 and PEO1 CBX2 knockdown cells were plated in adherent (2D) conditions and for 96 h gLuc activity was measured every 24 h. […] OVCAR4 and PEO1 CBX2 knockdown cells were plated in forced suspension conditions and gLuc activity was monitored every 24 h for 96 h and cell viability was determined for cells grown in forced suspension. […] Spheroid diameter was measured for at least 50 spheroids in each condition and used as a surrogate for cell number. […]
Cell lysis was performed using radioimmunoprecipitation assay (RIPA) buffer (150 mM sodium chloride, Triton X-100, 0.5% sodium deoxycholate, 0.1% SDS [sodium dodecyl sulfate], 50 mM Tris, pH 8.0) supplemented with complete EDTA-free protease inhibitor cocktail (Roche), as well as NaF and NaV. Protein was quantified using bicinchoninic acid (BCA) protein assay (Thermo Fisher Scientific, Waltham, MA) and spectrophotometry. […]

[2] = tested on: aldehyde dehydrogenase (ALDH); assay: Aldefluor assay with flow cytometry; conditions: OVCAR4 cells, adherent and suspended, 7 days; negative control
Description: The panels of FIG. 9A and FIG. 9B are as follows. Panel A: CBX2-associated genes were cross-referenced with a gene set for stemness. Percentage indicates overlap of stemness gene set with CBX2-associated genes. Panel B: OVCAR4 cells grown in adherent and suspended settings for 7 days. Aldefluor assay and flow cytometry were utilized to determine the percentage of cells that were positive for aldehyde dehydrogenase (ALDH), a marker of stemness. […] Panel C: As above, OVCAR4 cells grown in adherent and suspended settings for 7 days. Bar graph compares the percentage of cells ALDH positive control (+DEAB) to cells without DEAB (experimental) in adherent and suspended settings. Statistical test=two-sided t-test. F Test p=0.1136. Panel D: OVCAR4 cells with shControl, shCBX2 #1 and #2 cultured in suspension over 7 days. Aldefluor assay and flow cytometry again utilized to determine the percentage of cells ALDH positive. Statistical test=two-sided t-test. F-test p=0.83 Panel E: Utilizing the TCGA (HGSOC, Nature, 2011, n=489) dataset, a scatter plot CBX2 expression was correlated to ALDH3A1 expression. Spearman correlation r=0.2123 and p-value<0.0001. Panel F: RT-qPCR of ALDH3A1 in OVCAR4 cells cultured in adherent and suspension conditions with CBX2 knockdown (shCBX2 #1). Statistical test =ANOVA. […]

Row | Molecule | TMEFF1 expression [1] | CBX2 knockdown (CBX2) | other results
1 | CC(=O)Nc1ccc(OC[C@](C)(O)C(=O)Nc2ccc([N+](=O)[O-])c(C(F)(F)F)c2)cc1 [GTX-007] | significantly inhibited | – | –
2 | shCBX2 #2: CBX2-specific short hairpin RNA, ACGGAAAGGAACAGGAAGCAT (SEQ ID NO:20) (expressed or natural sequence; listed as Homo sapiens) | – | ~30% | –
3 | CCc1c(C(=O)C(N)=O)c2c(OCC(=O)O)cccc2n1Cc1ccccc1 [LY315920] | significantly inhibited | – | –
4 | CCN(CC)c1ccc(C=O)cc1 [DEAB, Diethylaminobenzaldehyde] | – | – | ALDH activity [2]: prevented the increase
5 | shCBX2 #1: CBX2-specific short hairpin RNA, GCCAAGGAAGCTCACTGCCAT (SEQ ID NO:19) (expressed or natural sequence; listed as Homo sapiens) | – | approximately 60% | –
6 | Cc1nc2ccc(CN(C)c3ccc(C(=O)N[C@@H](CCC(=O)O)C(=O)O)s3)cc2c(=O)[nH]1 [raltitrexed] | significantly inhibited | – | –
